“Also recorded” adds a separate entry of the source.
Legend:
aortic rings = experiment: Effect on SNP relaxation of precontracted rat aortic rings; format: cell-based; conditions: in the presence of BuCHE or phosphatase
Procedure: (§1) After wash out and re-equilibration for 30 min, the aortic rings were then submaximally precontracted with PE and U46619, which were used to produce an active tension of 45-60% of the KPSS-induced maximum contraction. When investigating the effects of the flavonoids, flavonol, flavone-3-hemiadipate (F3HA), 3′, 4′-dihydroxyflavone, 3′,4′-dihydroxyflavonol, 3′,4′-dihydroxyflavone-3-hemiadipate (DiOHF3HA), and flavone-3-phosphate (F3P) on vasorelaxant responses, rings were incubated with one of the compounds for 20 mins before they were precontracted submaximally, followed by a cumulative-concentration response curve to ACh (100 nM-10 μM) or SNP ([…]). In experiments using F3P 1000U/L phosphatase was used in some experiments to cleave the phosphate. Some experiments were conducted in the presence and absence of butyryl cholinesterase (BuCHE, 1000 U/L) to cleave the adipate in DiOHF3HA and F3HA.

anaesthetised rats = experiment: Arterial pressure and heart rate in anaesthetised rats after intravenous injection; format: in vivo, rat; conditions: intravenous, anaesthetised rats; disodium salt
Procedure: A unit dosage of an aqueous solution of 3-hydroxyflavone-3-hemiadipate (15) was administered to a group of male anesthetized Sprague Dawley rats intravenously and the blood pressure monitored over a period of time.
Male Sprague-Dawley rats (250-350 g) were anaesthetised with pentobarbitone sodium (60 mg kg^−1, ip). The trachea was isolated and cannulated with polyethylene tracheal tube (I.D. 2.0 mm), and the rat was allowed to breathe spontaneously.
The right carotid artery was cannulated and connected with a heparinised saline filled cannula (O.D. 0.75, I.D, 0.58 mm) and connected to a pressure transducer. Mean and phasic arterial pressure were continuously measured and recorded on a polygraph. The heart rate, was derived from the phasic arterial pressure using a tachometer.
DiOHF3HA ([…]) was injected intravenously, allowing at least 30 min between injections, and the peak changes in mean arterial pressure and heart rate measured. […] In a separate group of experiments ACh (0.3 mg/kg iv) and phenylephrine (PE, […]) were injected before and 30 minutes after DiOHF3HA (3 mg/kg iv), a time when arterial pressure and heart rate had returned to control levels. […]

[1] = test system: endothelium-intact aortic rings treated with pyrogallol; experiment: Vasorelaxation to ACh in the presence of oxidative stress (pyrogallol); format: cell-based, rat; conditions: pyrogallol 2×10^−5 M, F3P plus phosphatase; disodium salt
Procedure: Control cumulative relaxation responses to ACh were compared with those obtained from endothelium-intact aortic rings treated with pyrogallol (2×10^−5 M). The effects of vehicle (0.1% DMSO), phosphatase (1000 U/L) or F3P (10^−6-10^−4 M) on responses to ACh in the rat isolated aortic rings exposed to pyrogallol (2×10^−5 M) were also determined. Pyrogallol was added when the aortic rings had reached a stable level of contraction with PE and U44619 at a level between 50 and 70% of KPSS-induced tension and 10 minutes was allowed before determining the cumulative concentration-response curves to ACh. In some experiments using F3P 1000 U/L phosphatase was used to cleave the phosphate.

[2] = test system: endothelium intact aortic rings; experiment: Ca2+-induced contraction of rat aortic rings in Ca2+-free high-K+ solution; format: cell-based
Procedure: To determine the effect of flavonoids on responses to the influx of extracellular Ca^2+, contractile responses to exogenous application of Ca^2+ were examined in the presence of flavonoids in Ca^2+-free high-K^+ solution (60 mM, KPSS). Aortic rings were initially equilibrated at a resting tension of 1 g in normal Ca^2+-free PSS for 45 minutes. The bath medium was then replaced with Ca^2+-free KPSS for 45 minutes to determine a reference contraction to Ca^2+ (3×10^−3 M). Following a 30 minute re-equilibration period with Ca^2+-free PSS, the cumulative contractile responses to Ca^2+ (10^−5−3×10^−3 M) were determined in KPSS in the presence of a range of concentrations (10^−8-10^−4 M) of vehicle, 3′,4′-dihydroxyflavonol, 3-hydroxyflavone-3-hemiadipate, 3′,4′-dihydroxy-3-hemiadipate, 3-hydroxyflavone-3-phosphate. A 20 minute incubation period was allowed for the flavonoids before examining the responses to Ca^2+.
To determine the effect of flavonoids on responses to the influx of extracellular Ca^2+, contractile responses to exogenous application of Ca^2+ were examined in the presence of flavonoids in Ca^2+-free high-K^+ solution (60 mM, K+-PSS). Aortic rings were initially equilibrated at a resting tension of 1 g in Ca^2+-free PSS for 45 minutes. The bath medium was then replaced with Ca^2+-free K+-PSS for 45 minutes to determine a reference contraction to added Ca^2+ (3 mM). Following a 30 minute re-equilibration period with Ca^2+-free PSS, the cumulative contractile responses to Ca^2+ (10^−5−3×10^−3 M) were determined in K^+ PSS in the presence of vehicle (0.1% DMSO), or a range of concentrations (10^−7-10^−4 M) of 3′-hydroxyflavonol, F3HA, DiOHF3HA or F3P. A 20 minute incubation period was allowed for the flavonoids before examining the responses to Ca^2+. Experiments were conducted in the presence and absence of BuCHE (1000 U/L) to cleave the adipate in F3HA and DiOHF3HA. In experiments using F3P, phosphatase (1000 U/L) was used in some experiments to cleave the phosphate.

[3] = test system: superoxide anions generated in rat aorta; experiment: Superoxide anion production in rat isolated aortic segments (lucigenin chemiluminescence, NADPH); format: cell-based; conditions: disodium salt
Procedure: Superoxide anion production in rat isolated aortic segments was determined using lucigenin chemiluminescence. Aortic rings were prepared as described above and then placed in ice-cold Krebs-(N-[2-Hydroxyethyl]piperazine-N′-[2-ethanesulfonic acid] (HEPES buffer) (composition (mM); NaCl 99.0, KCl 4.7, KH2PO4 1.0, MgSO4·7H2O 1.2, D-glucose 11.0, NaHCO3 25.0, CaCl2·2H2O 2.5, Na-HEPES 20.0). Aortic rings were pre-incubated for 45 minutes at 37° C. with a pH 7.4, in Krebs-HEPES buffer containing diethylthiocarbamic acid (DETCA, 10^−3 M) to inactivate superoxide dismutase and β-nicotinamide adenine dinucleotide phosphate (NADPH, 10^−4 M) as a substrate for NADPH oxidase and either 3′,4′-dihydroxyflavonol (10^−4 M) as a positive control, vehicle, 3-hydroxyflavone-3-hemiadipate, 3′,4′-dihydroxy-3-hemiadipate, 3-hydroxyflavone-3-phosphate (10^−8-10^−4 M). Background photon emission was measured for 12 cycles in a 96-well Optiplate containing 0.3 ml per well of Krebs-HEPES buffer together with lucigenin (5×10^−5 M) and vehicle or flavonoid (10^−8-10^−4 M). Each cycle was counted every one minute. After background reading was completed the incubated aortic rings were transferred to the appropriate wells and photon emission was recounted as described above. The tissue was then placed in a 65° C. oven for 48 hours to allow superoxide production to be normalised to dry tissue weight.
The effects of vehicle, 3′,4′-dihydroxyflavone-3-hemiadipate (21) (DiOHF3HA, 10^−8 M-10^−4 M) and DiOHF (10^−4 M) in the presence and absence of Butyryl cholinesterase (BuCHE), 100, 300 and 1000 U/L) on the level of superoxide anions generated in rat isolated aortic segments in the presence of NADPH was expressed as a percentage of control. The method used was as described above except for the addition of the butyryl cholinesterase.
The effect of vehicle, 3-hydroxyflavone-3-phosphate (10^−8 to 10^−4 M) in the presence or absence of phosphatase (1000 U/L) on the level of superoxide anions generated in rat aorta in the presence of NADPH expressed as a percentage of control was determined as described above for the 3′,4′-dihydroxyflavone-3-hemiadipate.

[4] = test system: endothelium intact aortic rings; experiment: Effect on ACh relaxation of precontracted rat aortic rings; format: cell-based; conditions: for Rmax of ACh relaxation: n=5
Procedure: as §1

O=c1c(OP(=O)([O-])[O-])c(-c2ccccc2)oc2ccccc12.[Na+].[Na+] [F3P, 3-Hydroxyflavone-3-phosphate disodium salt]
effect on relaxant response to SNP (aortic rings): not SNP
change in heart rate (HR) (anaesthetised rats): dose-dependent decrease in HR; also recorded: only small concentration dependent decreases
change in mean arterial pressure (MAP) (anaesthetised rats): dose-dependent decreases in MAP; also recorded: only small concentration dependent decreases
maximum response to ACh under oxidant stress [1]: the response was restored; also recorded: enhance endothelium-dependent relaxation in the presence of oxidant stress
effect on Ca^2+-induced contraction ([2]; alone, highest concentration 10^−4 M): partial inhibition of the calcium-induced contraction
effect on Ca^2+-induced contraction ([2]; alone, over the concentration range tested): small inhibition of calcium-induced contraction
effect on Ca^2+-induced contraction ([2]; in the presence of BuCHE or phosphatase (1000 U/L), listed as flavone-3-phosphate, disodium salt): markedly enhanced the inhibitory effects
effect on superoxide generation ([3]; in the presence of cleaving enzyme (BuCHE for hemiadipates, phosphatase for phosphate, 1000 U/L)): concentration-dependent inhibition of superoxide levels; also recorded: inhibit superoxide levels produced by rat aorta
effect on superoxide generation ([3]; in the presence of cleaving enzyme (BuCHE for hemiadipates, phosphatase for phosphate, 1000 U/L), listed as flavone-3-phosphate): concentration dependent decrease in the levels of superoxide
effect on superoxide generation ([3]; substance alone, no added esterase/phosphatase, up to 10^−4 M, NADPH): no effect on superoxide generation; also recorded: no antioxidant or vascular activity
effect on superoxide generation ([3]; substance alone, no added esterase/phosphatase, up to 10^−4 M, NADPH, listed as 3-hydroxyflavone-3-phosphate): measurable effect on the superoxide anion generation
Rmax of ACh relaxation ([4]; F3P 10^−4 M + phosphatase): 100 ± 1
Rmax of ACh relaxation ([4]; F3P 10^−5 M + phosphatase): 100 ± 1
effect on relaxant response to ACh ([4]; in the presence of phosphatase, disodium salt): enhanced; also recorded: increased the sensitivity of rat aortic rings to relaxation by ACh

Reference: patent US8017649B2, “Flavonoid compounds and uses thereof” (Howard Florey Institute of Experimental Physiology and …, priority 2005, dated 2011)
